Reference: patent US20250082630A1, “METHODS OF TREATING BRAIN TUMOURS AND NEUROBLASTOMAS” (AstraZeneca AB, priority 2021, published 2025)

Columns and labels:
[1] = tested on: SJ-G2 IDH1 wt and IDH1mt isogenic pairs; experiment: Combination assay PARP inhibitor with TMZ, SJ-G2 isogenic pairs; assay type: cell-based
Experimental: (§1) To evaluate the activity and potency of the PARP inhibitors described herein in combination with the standard of care chemotherapy Temozolamide (TMZ), ionizing radiation (IR) and the emerging chemotherapy VAL-083, U87, SJG2 and BT245 glioblastoma cells were assayed. Parental U87 cell lines were obtained from the AstraZeneca Global Cell Bank in Alderley Park, UK and the isocistrate dehydrogenase 1 mutant cell line (IDH1 mt R1 32H) was licensed in from ATCC. The SJ-G2 (ATRX mutant) and BT245 (H3K27M mutant) cell lines were obtained from The Research Institute of the McGill University Health Centre, Montreal, QC H4A 3J1, Canada. IDH1R132 mutation was induced in SJG2 cell line to generated isogenic pair (SJG2 IDH1mt and SJG2 IDH1 wt). […]
(§2) For the nuclear count end point assay, cells were fixed for ˜15 minutes (min) by the addition of 50 μl per well of Formaldehyde (Sigma-Aldrich F8775). […] The images were acquired using CellInsight CX5 (Thermo Fisher) and analysed by measuring the total number of hoechst stained nuclei. The number of nuclei (% confluence) of the drug treated wells were normalised to the DMSO control and the growth inhibition was calculated using the combenefit software (Di Veroli et al., 2016).

U87MG xenograft = assay type: in vivo, female Nude mice; settings: Compound 20 3 mg/kg QD in combination with TMZ 6.25 mg/kg QD on days 1-5 and 29-33, PO
Experimental: U87MG cells (2.5 million in serum-free MEM medium) were implanted subcutaneously (SC) into the dorsal flank of female Nude mice (weight greater than 18 g). Tumours were measured (length x width) two times weekly by bilateral Vernier calliper measurements and tumour volume was calculated using elliptical formula (π/6×width×width×length). Animal bodyweight and tumour condition were monitored throughout the study. Mice were randomised into treatment groups when mean tumour volume reached approximately 0.2 cm^3.
Animals were treated orally (PO) from the day after the randomisation. Control animals were treated with vehicle (water/methane sulfonic acid (MSA) pH3-3.2) once daily for 10 days (QD×10). PARP inhibitor in water/MSA pH3-3.2 was dosed in the monotherapy and combination groups at 3 mg/kg QD×10 or QD×33, respectively. Temozolomide (TMZ) in OraPlus Perrigo was dosed in the monotherapy group at 25 mg/kg QD on days 1-5 and 29-33, and in monotherapy and combination group at 6.25 mg/kg QD on days 1-5 and 29-33.
Tumour growth inhibition from start of treatment was assessed by comparison of the mean change in tumour volume (TV) of the control and treated groups and represented as percent tumour growth inhibition (TGI, when tumour volume (TV) >starting TV) or tumour regression (reg, when TV<starting TV). Statistical significance was evaluated using a one-tailed t test. Statistical significance is indicated as follows: *p:0.05, **p:0.01, ***p:0.001.

[2] = tested on: SJ-G2 IDH1 wt and IDH1mt isogenic pairs; experiment: Combination assay PARP inhibitor with VAL-083, SJ-G2 isogenic pairs; assay type: cell-based
Experimental: as §1, §2

DLD1 cells = experiment: PARP proliferation assay (7 day compound dosing), WT DLD1; assay type: cell-based; settings: Homo sapiens, DLD-1, 168 h, read-out: WT DLD-1 prolif. 7 d IC50
Experimental: (§3) DLD1 and BRCA2 (−/−) DLD1 cells were harvested to a density of 5000 cells/ml and 2.5E4 cells/ml respectively in complete media, 40 μL/well seeded into 384-well plates (Greiner, Kremsmunster, Austria; 781090) using a Multidrop Combi then incubated at 37° C., 5% CO2 overnight. Next day (Day 1) using a Multidrop Combi add sytox green (5ul, 2 uM) and saponin (10 ul, 0.25% stock) to a day 0 plate, seal the plate using a black adhesive lid and incubate for >3 h at it. Cells were imaged using Cell Insight (Thermo Fisher) fitted with a 4x objective. Test compounds are added using an Echo 555 and placed in incubator maintained at 37° C., 5% CO2 and incubated for 7 days. On Day 8 add sytox green (5ul, 2 uM) and then saponin (10 ul, 0.25% stock) to plates, seal the plate using a black adhesive lid and incubate for >3 h at it. Read all cells on the Cell Insight with 4× Objective. The rate of proliferation is determined in Genedata by assessing the total cell number output from the Cell Insight for Day 0 and Day 8 plates.

U87 IDH1wt ATRXwt = experiment: Monotherapy treatment, U87 IDH1wt ATRXwt; assay type: cell-based; settings: read-out: Compound 20 IC50
Experimental: as §1, §2

[3] = tested on: BT245 H3K27M paediatric glioma cells; experiment: Combination assay PARP inhibitor with ionizing radiation (colony formation); assay type: cell-based; settings: 0.9 Gy, multiple doses of the inhibitor
Experimental: DMSO served as a vehicle control. […] Next, cells were fixed and stained using the Sulforhodamin B acid form (SRB) [Sigma, 341738-5g] reconstituted in 1% Acetic Acid as the stain is added straight after fixation without any washing step which limits cell detachment. Plates with stained colonies were scanned with the GelCount colony counter (Oxford OPTRONIX) at 600 dpi resolution. Colony formation was scored by quantifying the total optical density measured with ImageJ software, using a 24-well plate Region of Interest (ROI) mask (CFU, colony formation units). Data analysis was performed by normalisation on the vehicle treated of the respective plate set as =100. […] In the represented plots error bars are mean±SD.

SJ-G2 IDH1mt ATRXmt = experiment: cells; settings: SJ-G2, read-out: Compound 20 IC50
Experimental: as §1, §2

[4] = tested on: U87 IDH1 wt and IDH1 mt isogenic pairs; experiment: Combination assay PARP inhibitor with VAL-083, U87 isogenic pairs; assay type: cell-based
Experimental: as §1, §2

U87 IDH1mt ATRXwt = experiment: Monotherapy treatment, U87 IDH1mt ATRXwt; assay type: cell-based; settings: read-out: Compound 20 IC50
Experimental: as §1, §2

BRCA2 (−/−) DLD1 cells = experiment: PARP proliferation assay (7 day compound dosing), BRCA2 (−/−) DLD1; assay type: cell-based; settings: Homo sapiens, DLD-1, 168 h, read-out: BRCA2 −/− DLD-1 prolif. 7 d IC50
Experimental: as §3

SMILES: CNC(=O)c1ccc(N2CCN(Cc3ccc4nc(C)c(=O)[nH]c4c3F)CC2)c(F)n1 [Example 20, 6-fluoro-5-[4-[(5-fluoro-2-methyl-3-oxo-4H-quinoxalin-6-yl)methyl]piperazin-1-yl]-N-methyl-pyridine-2-carboxamide]
- lowest PARP inhibitor concentration significantly enhancing the TMZ effect [1]: 10 nM
- tumour regression (U87MG xenograft): 95%
- tumours regressed (U87MG xenograft): 8/8
- activity in the absence of VAL-083 ([2]; 1 μM Compound 20, ATRX mutant cell lines): has activity
- combination effect with VAL-083 ([2]; SJ-G2 IDH1 wt and IDH1mt, ATRX mutant): enhanced combination benefit
- IC50 (DLD1 cells): > 30000 nM
- IC50 (U87 IDH1wt ATRXwt): > 100000 nM
- combination effect with ionizing radiation [3]: enhanced combination benefit
- IC50 (SJ-G2 IDH1mt ATRXmt): 1750 nM
- combination effect with VAL-083 [4]: synergises with VAL-083
- IC50 (U87 IDH1mt ATRXwt): > 100000 nM
- IC50 (BRCA2 (−/−) DLD1 cells): 8 nM
